Laboratory results taken from patent US7713994B2 (Wyeth LLC, priority 2005, dated 2010).
Where two headings read alike, the source gives them in different places.

Key:
[1] = biological target: T1, cyclin B/CDK1 enzyme (Homo sapiens, UniProt P06493); assay: CDK1 ELISA kinase assay (phospho-Rb ser 795 detection); assay type: biochemical
T1 construct: purchased New England BioLabs; host or cells: Sf9 insect cells, recombinant baculovirus
Protocol: • 1. High-binding ELISA microtiter plates (Costar) were coated with 40 μl of the kinase substrate (GST fusion of C-terminal fragment of the retinoblastoma susceptibility gene product) diluted to 10 μg/ml in tris-buffered saline (TBS), overnight at 4° C. • 2. Non-specific binding sites were blocked for 1 hour at 4° C. with Superblock in TBS (Pierce), and the plates rinsed with water. • 3. For the screen, 1.5 μl of test compound (200 μg/ml stock in 20% DMSO/20 mM HEPES, pH 7.5) was added to each well. Final dose of the test compound in the assay was 10 ug/ml. […] The kinase reaction (30 μl) was dispensed into each well. Reactions contained 200 μM ATP, 0.5 mg/ml bovine serum albumin (BSA; Sigma), and 0.5 μl partially purified cyclin D1/cdk 4 enzyme*. The enzyme complex is expressed in insect cells (Sf9) infected with recombinant baculovirus and partially purified using ammonium sulfate fractionation. Reaction volumes were adjusted to 30 μl with kinase assay buffer (50 mM HEPES, pH 7.5, 10 mM MgCl2, 5% glycerol, 10 mM 2-mercaptoethanol). • *: For CDK2 assay, 1.0 μl cyclin E/CDK2 enzyme (diluted 1:1000 in kinase assay buffer) was used. The enzyme is isolated from insect cells (Sf9) infected with recombinant baculovirus and partially purified using ammonium sulfate fractionation. For CDK1 assay, 0.08 μl cyclin B/CDK1 enzyme [New England BioLabs; the enzyme is isolated from insect cells (Sf9) infected with recombinant baculovirus carrying human cdc 2 and human cyclin B] was used.
[…] • 5. Plates were incubated at 30° C. for 1 hour. • 6. The reaction mixture was removed by aspiration and replaced with 250 μl TBS containing 0.1% Tween-20 and 5% nonfat dry milk (blocking buffer). The plates were incubated at 4° C. for 1 hour. • 7. The blocking buffer was removed and replaced with 50 μl of the primary antibody [anti-phospho-Rb ser 795 (New England BioLabs) diluted 1:1000 in blocking buffer]. Incubation was at 4° C. for 16-20 hours. • 8. The wells were rinsed 3 times with 250 μl of TBS containing 0.1% Tween-20 followed by the addition of 50 μl of secondary antibody [anti-rabbit IgG conjugated to horseradish peroxidase (Amersham Life Science) diluted 1:1000 in blocking buffer]. • 9. After a 1 hour incubation at room temperature, the wells were rinsed 3 times with 250 μl of TBS/0.1% Tween 20. • 10. TMB (3,3′,5,5′-tetramethylbenzidine dihydrochloride) substrate solution (100 μl; Pierce) was added to each well and the color development reaction allowed to proceed 5-10 minutes at room temperature with shaking. The reaction was stopped by the addition of 2N sulfuric acid (100 μl) and the absorbance values read at 450 nm in a microplate reader (Molecular Devices). Analysis of Results: • 1. The percentage of the absorbance value in wells containing the test compound relative to control wells (no test agent) was determined. • 2. IC50 values of selected compounds were determined from inhibition curves, after subtracting background values (no substrate).

[2] = test system: LoVo; assay: Cytotoxicity assay (SRB), LoVo; assay type: cell-based; conditions: Homo sapiens, LoVo, 72 h, read-out: In Vitro Cellular Activity IC50 LOVO
In short: (§1)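 Protein staining with sulforhodamine B after cold TCA fixation served as the survival endpoint (A540, relative to untreated cells). Before staining, cells were incubated with compound at 37 °C, 7% CO2 for 3 days, or 6 days for BT474.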

[3] = test system: HCT-116; assay: Cytotoxicity assay (SRB), HCT-116; assay type: cell-based; conditions: Homo sapiens, HCT-116, 72 h, read-out: In Vitro Cellular Activity IC50 HCT116
In short: as §1

[4] = test system: MCF-7; assay: Cytotoxicity assay (SRB), MCF-7; assay type: cell-based; conditions: Homo sapiens, MCF7, 72 h, read-out: In Vitro Cellular Activity IC50 MCF-7
In short: as §1

[5] = test system: BT474; assay: Cytotoxicity assay (SRB), BT474; assay type: cell-based; conditions: Homo sapiens, BT-474, 144 h, read-out: In Vitro Cellular Activity IC50 BT474
In short: as §1

[6] = biological target: T2, cyclin D1/cdk 4 enzyme (Homo sapiens, UniProt P11802); assay: CDK4 ELISA kinase assay (phospho-Rb ser 795 detection); assay type: biochemical
T2 construct: made in house; host or cells: Sf9 insect cells, recombinant baculovirus
T2 sequence (P11802 whole entry, species assumed): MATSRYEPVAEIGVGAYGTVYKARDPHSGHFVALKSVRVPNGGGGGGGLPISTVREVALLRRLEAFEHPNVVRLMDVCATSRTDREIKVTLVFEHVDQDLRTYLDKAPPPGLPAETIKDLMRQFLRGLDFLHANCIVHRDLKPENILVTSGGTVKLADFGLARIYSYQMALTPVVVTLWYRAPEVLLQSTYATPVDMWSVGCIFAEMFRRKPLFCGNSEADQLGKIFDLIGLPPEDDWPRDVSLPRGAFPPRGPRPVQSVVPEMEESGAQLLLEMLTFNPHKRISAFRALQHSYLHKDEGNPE
T2 sequence (P24385 whole entry partner, species assumed): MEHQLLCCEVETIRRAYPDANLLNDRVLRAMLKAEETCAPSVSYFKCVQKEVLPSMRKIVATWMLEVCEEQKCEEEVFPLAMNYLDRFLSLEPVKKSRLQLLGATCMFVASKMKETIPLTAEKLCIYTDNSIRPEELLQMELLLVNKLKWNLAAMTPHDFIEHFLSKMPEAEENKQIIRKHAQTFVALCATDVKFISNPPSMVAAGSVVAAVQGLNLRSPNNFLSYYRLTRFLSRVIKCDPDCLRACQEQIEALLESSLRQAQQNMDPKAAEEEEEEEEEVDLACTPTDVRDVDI
In short: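 ELISA format: plate-bound GST-Rb, 200 μM ATP, Sf9 cyclin/CDK enzyme, 1 h at 30° C; then anti-pRb Ser795 primary overnight at 4° C, HRP secondary, TMB. IC50 after no-substrate background subtraction.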

[7] = In Vitro Enzyme Assays, read-out: CDK1 IC50
[8] = In Vitro Enzyme Assay, cyclin D1/cdk 4, read-out: CDK4 IC50

T1 sequence (P06493 whole entry): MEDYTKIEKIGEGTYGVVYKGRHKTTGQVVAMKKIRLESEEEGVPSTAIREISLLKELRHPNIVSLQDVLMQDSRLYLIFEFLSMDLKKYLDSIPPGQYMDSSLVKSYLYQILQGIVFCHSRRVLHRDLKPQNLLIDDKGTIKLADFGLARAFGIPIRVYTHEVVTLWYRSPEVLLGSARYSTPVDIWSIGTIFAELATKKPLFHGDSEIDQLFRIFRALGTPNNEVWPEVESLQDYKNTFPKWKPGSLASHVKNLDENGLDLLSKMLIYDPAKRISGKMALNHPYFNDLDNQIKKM
T1 sequence (P14635 whole entry partner): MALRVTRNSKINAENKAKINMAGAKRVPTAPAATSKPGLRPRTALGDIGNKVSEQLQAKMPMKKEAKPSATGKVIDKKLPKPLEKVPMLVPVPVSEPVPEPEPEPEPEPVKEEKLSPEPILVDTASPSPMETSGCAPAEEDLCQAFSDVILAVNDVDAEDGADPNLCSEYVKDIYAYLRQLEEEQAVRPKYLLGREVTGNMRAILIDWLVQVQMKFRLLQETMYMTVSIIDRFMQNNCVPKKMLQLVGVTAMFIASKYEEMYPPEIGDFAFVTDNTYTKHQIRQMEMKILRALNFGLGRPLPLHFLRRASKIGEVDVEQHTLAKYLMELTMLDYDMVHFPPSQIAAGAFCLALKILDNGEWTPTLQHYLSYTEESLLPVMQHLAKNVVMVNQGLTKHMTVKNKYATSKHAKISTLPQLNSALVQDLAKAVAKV

Row | Structure (SMILES) | IC50 [6, 8] [µM] | IC50 ([2]; LoVo cells, 3 days, SRB) [µM] | IC50 ([3]; HCT116 cells, 3 days, SRB) [µM] | IC50 ([4]; MCF-7 cells, 3 days, SRB) [µM] | IC50 ([5]; BT474 cells, 6 days, SRB) [µM] | other results
1 | COc1ccc(-c2ccc3c(c2)/C(=C/Nc2ccc(CN4CCCCC4)cc2)C(=O)NC3=O)cc1 [Example 116, (4Z)-6-(4-Methoxyphenyl)-4-({[4-(piperidin-1-ylmethyl)phenyl]amino}methylene)-isoquinoline-1,3(2H,4H)-dione] |  |  |  |  |  | IC50 [1, 7]: > 50 µM; IC50 ([2]; LoVo cells, SRB, three days): 2.8 µM; IC50 ([3]; HCT116 cells, SRB, three days): 1.3 µM; IC50 ([4]; MCF-7 cells, SRB, three days): 3.2 µM; IC50 ([5]; BT474 cells, SRB, 6 days): 2.8 µM
2 | CN1CCN(c2ccc(N/C=C3\C(=O)NC(=O)c4ccc(-n5cccc5)cc43)cc2)CC1 [compound 60] |  |  |  |  |  | IC50 [1, 7]: > 50 µM; IC50 [2]: 2 µM; IC50 [3]: 1.5 µM; IC50 [4]: 2.3 µM; IC50 [5]: 2 µM
3 | N#CCc1ccc(NC=C2C(=O)NC(=O)c3ccc(-c4ccccc4Cl)cc32)cc1 [Example 714, (4-{[6-(2-Chloro-phenyl)-1,3-dioxo-2,3-dihydro-1H-isoquinolin-4-ylidenemethyl]-amino}-phenyl)-acetonitrile] | 5.5 | > 50 | > 50 | 31.2 | > 50 | 
4 | CN1CCN(c2ccc(NC=C3C(=O)NC(=O)c4ccc(-c5ccccc5)cc43)cc2)CC1 [Example 831, 4-{[4-(4-Methyl-piperazin-1-yl)-phenylamino]-methylene}-6-phenyl-4H-isoquinoline-1,3-dione] | 0.19 | 2.8 |  |  | 3.2 | IC50 ([1]; In Vitro Enzyme Assay, cyclin B/CDK1, read-out: CDK1 IC50): > 50 µM
5 | Cc1ccc(-c2ccc3c(c2)C(=CNc2ccc(CC#N)cc2)C(=O)NC3=O)cc1 [Example 715, {4-[(1,3-Dioxo-6-p-tolyl-2,3-dihydro-1H-isoquinolin-4-ylidenemethyl)-amino]-phenyl}-acetonitrile] | 9.3 | 26 | 19.6 | 24.8 | 33.4 | 
6 | C[C@@H]1CN(c2ccc(N/C=C3\C(=O)NC(=O)c4ccc(I)cc43)cc2)C[C@H](C)N1 [Example 216, (4Z)-4-({[4-(3,5-Dimethylpiperazin-1-yl)phenyl]amino}methylene)-6-iodoisoquinoline-1,3(2H,4H)-dione] |  |  |  |  |  | IC50 [1, 7]: > 50 µM; IC50 ([2]; LoVo cells, SRB, three days): 1.3 µM; IC50 ([5]; BT474 cells, SRB, 6 days): 1.1 µM
7 | CN1CCN(c2ccc(NC=C3C(=O)NC(=O)c4ccc(-c5ccc(Cl)cc5)cc43)cc2)CC1 [Example 689, 6-(4-Chloro-phenyl)-4-{[4-(4-methyl-piperazin-1-yl)-phenylamino]-methylene}-4H-isoquinoline-1,3-dione] | 4.7 | 6.7 | 3 | 3.8 | 3.4 | 
8 | CC1CN(c2ccc(N/C=C3\C(=O)NC(=O)c4ccc(I)cc43)cc2)CCN1C (centres unmarked) [Example 248, (4Z)-4-({[4-(3,4-Dimethylpiperazin-1-yl)phenyl]amino}methylene)-6-iodoisoquinoline-1,3(2H,4H)-dione] |  |  |  |  |  | IC50 [1, 7]: > 50 µM; IC50 ([2]; LoVo cells, SRB, three days): 2.8 µM; IC50 ([6]; In Vitro Enzyme Assays, 200 μM ATP, read-out: CDK4 IC50): 2.7 µM; IC50 ([5]; BT474 cells, SRB, 6 days): 3 µM
9 | N#CCc1ccc(NC=C2C(=O)NC(=O)c3ccc(-c4cc5ccccc5s4)cc32)cc1 [Example 627, {4-[(6-Benzo[b]thiophen-2-yl-1,3-dioxo-2,3-dihydro-1H-isoquinolin-4-ylidenemethyl)-amino]-phenyl}-acetonitrile] | 10.4 | > 50 | > 50 | 7.3 | 4.3 | 

Further lines, with some results ahead:

Row | IC50 [6, 8] [µM] | Structure (SMILES) | IC50 ([2]; LoVo cells, 3 days, SRB) [µM] | IC50 ([3]; HCT116 cells, 3 days, SRB) [µM] | IC50 ([4]; MCF-7 cells, 3 days, SRB) [µM] | IC50 ([5]; BT474 cells, 6 days, SRB) [µM] | other results
10 | 4.8 | NS(=O)(=O)c1ccc(CNC=C2C(=O)NC(=O)c3ccc(C=CC4CCCCC4)cc32)cc1 [Example 656, 4-({[6-(2-Cyclohexyl-vinyl)-1,3-dioxo-2,3-dihydro-1H-isoquinolin-4-ylidenemethyl]-amino}-methyl)-benzenesulfonamide] | 11.7 | 12.6 | 12.2 | 13.4 | 
11 | 3.4 | Cc1cccc(-c2ccc3c(c2)C(=CNCc2ccc(S(N)(=O)=O)cc2)C(=O)NC3=O)c1 [Example 753, 4-{[(1,3-Dioxo-6-m-tolyl-2,3-dihydro-1H-isoquinolin-4-ylidenemethyl)-amino]-methyl}-benzenesulfonamide] | 23.4 | 14.4 | 13.3 | 28.9 | 
12 | 2.5 | NS(=O)(=O)c1ccc(CNC=C2C(=O)NC(=O)c3ccc(-c4cccc(Cl)c4)cc32)cc1 [Example 750, 4-({[6-(3-Chloro-phenyl)-1,3-dioxo-2,3-dihydro-1H-isoquinolin-4-ylidenemethyl]-amino}-methyl)-benzenesulfonamide] | 27.8 | 29.1 | 39 | > 50 | 
13 | 2.5 | CN1CCN(c2ccc(NC=C3C(=O)NC(=O)c4ccc(C=CC(O)CO)cc43)cc2)CC1 (centres unmarked) [Example 730, 6-(3,4-Dihydroxy-but-1-enyl)-4-{[4-(4-methyl-piperazin-1-yl)-phenylamino]-methylene}-4H-isoquinoline-1,3-dione] | 28.8 | 17.1 | 40.9 | 20.2 | 
14 | 7.3 | N#CCc1ccc(NC=C2C(=O)NC(=O)c3ccc(-c4ccccc4F)cc32)cc1 [Example 706, (4-{[6-(2-Fluoro-phenyl)-1,3-dioxo-2,3-dihydro-1H-isoquinolin-4-ylidenemethyl]-amino}-phenyl)-acetonitrile] | > 50 | > 50 | 40.4 | > 50 | 
15 | 2.5 | NS(=O)(=O)c1ccc(CNC=C2C(=O)NC(=O)c3ccc(-c4ccccc4Cl)cc32)cc1 [Example 751, 4-({[6-(2-Chloro-phenyl)-1,3-dioxo-2,3-dihydro-1H-isoquinolin-4-ylidenemethyl]-amino}-methyl)-benzenesulfonamide] | 10.1 | 6.3 | 8.2 | 7.1 | 
